Experimental findings from patent US20240059671A1, “TYROSINE KINASE 2 (TYK2) DEGRADATION COMPOUNDS AND METHODS OF USE” (CULLGEN (SHANGHAI), INC., priority 2020, published 2024) are described below.

The target of this assay is TYK2 (Homo sapiens, UniProt P29597). The experiment in a line: TYK2 protein degradation in MOLT-4 cells by immunoblotting. The assay is classed as cell-based. Further details: endogenous in cells; host or cells: MOLT-4. To be noted: MOLT-4 cells, 24 hours. A digest of the protocol:
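Percent TYK2 degradation came from densitometry of chemiluminescent immunoblots of RIPA lysates. Before lysis, MOLT-4 cells had been treated for 24 h with each compound at 0.5 or 5 μM.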

Where only a bound is given, the exact number is not on record here.

TYK2, sequence (P29597 whole entry): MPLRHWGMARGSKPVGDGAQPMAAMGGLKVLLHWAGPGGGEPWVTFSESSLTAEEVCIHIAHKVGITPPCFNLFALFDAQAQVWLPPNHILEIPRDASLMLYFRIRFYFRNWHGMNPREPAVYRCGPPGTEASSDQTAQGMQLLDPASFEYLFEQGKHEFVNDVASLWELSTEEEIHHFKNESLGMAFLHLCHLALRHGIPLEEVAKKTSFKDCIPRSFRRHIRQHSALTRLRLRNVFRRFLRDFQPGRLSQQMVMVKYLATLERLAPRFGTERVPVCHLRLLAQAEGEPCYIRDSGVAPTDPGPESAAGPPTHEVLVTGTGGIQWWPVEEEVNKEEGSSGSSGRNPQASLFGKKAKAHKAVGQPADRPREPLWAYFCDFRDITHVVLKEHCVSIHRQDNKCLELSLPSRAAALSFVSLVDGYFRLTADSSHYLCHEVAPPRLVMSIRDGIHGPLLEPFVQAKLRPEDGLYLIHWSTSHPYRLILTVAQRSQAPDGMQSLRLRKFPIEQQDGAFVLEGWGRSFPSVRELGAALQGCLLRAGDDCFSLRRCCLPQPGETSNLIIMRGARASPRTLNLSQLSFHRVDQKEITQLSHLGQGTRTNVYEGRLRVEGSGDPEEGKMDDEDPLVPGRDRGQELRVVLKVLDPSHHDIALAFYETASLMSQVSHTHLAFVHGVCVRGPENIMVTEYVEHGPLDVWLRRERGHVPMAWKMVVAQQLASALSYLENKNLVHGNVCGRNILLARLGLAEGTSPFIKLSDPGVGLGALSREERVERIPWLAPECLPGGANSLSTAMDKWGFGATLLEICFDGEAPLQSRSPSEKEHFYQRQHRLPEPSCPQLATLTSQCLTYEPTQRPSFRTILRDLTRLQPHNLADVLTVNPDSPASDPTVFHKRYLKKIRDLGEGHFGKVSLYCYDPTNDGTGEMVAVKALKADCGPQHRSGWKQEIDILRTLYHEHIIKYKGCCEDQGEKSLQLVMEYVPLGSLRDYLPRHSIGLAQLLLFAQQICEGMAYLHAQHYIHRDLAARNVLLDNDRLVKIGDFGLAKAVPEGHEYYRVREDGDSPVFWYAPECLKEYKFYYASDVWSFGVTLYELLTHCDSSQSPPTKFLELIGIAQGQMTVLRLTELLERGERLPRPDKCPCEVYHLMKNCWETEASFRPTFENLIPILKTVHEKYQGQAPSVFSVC

Take `CNC(=O)c1nnc(NC(=O)C2CC2)cc1Nc1cccc(-c2ncn(CCNC(=O)CCCCCCCNc3ccc4c(c3)C(=O)N(C3CCC(=O)NC3=O)C4=O)n2)c1OC` (centres unmarked) [CPD-024, 6-(Cyclopropanecarboxamido)-4-((3-(1-(2-(8-((2-(2,6-dioxopiperidin-3-yl)-1,3-dioxoisoindolin-5-yl)amino)octanamido)ethyl)-1H-1,2,4-triazol-3-yl)-2-methoxyphenyl)amino)-N-methylpyridazine-3-carboxamide]: the “TYK2 Degradation (0.5 μM)” value is ≤20% and the “TYK2 Degradation (5 μM)” value is 30%.
As for `CNC(=O)c1nnc(NC(=O)CNC(=O)CCCNc2cccc3c2C(=O)N(C2CCC(=O)NC2=O)C3=O)cc1Nc1cccc(-c2ncn(C)n2)c1OC` (centres unmarked) [CPD-044, 6-(2-(4-((2-(2,6-Dioxopiperidin-3-yl)-1,3-dioxoisoindolin-4-yl)amino)butanamido)acetamido)-4-((2-methoxy-3-(1-methyl-1H-1,2,4-triazol-3-yl)phenyl)amino)-N-methylpyridazine-3-carboxamide], the “TYK2 Degradation (0.5 μM)” value is recorded as ≤20% and the “TYK2 Degradation (5 μM)” value is ≤20%.
For `CNC(=O)c1nnc(NC(=O)C2CC2)cc1Nc1cccc(-c2ncn(CCNC(=O)CCOCCOCCOCCOCCNc3cccc4c3C(=O)N(C3CCC(=O)NC3=O)C4=O)n2)c1OC` (centres unmarked) [CPD-011, 6-(Cyclopropanecarboxamido)-4-((3-(1-(1-((2-(2,6-dioxopiperidin-3-yl)-1,3-dioxoisoindolin-4-yl)amino)-15-oxo-3,6,9,12-tetraoxa-16-azaoctadecan-18-yl)-1H-1,2,4-triazol-3-yl)-2-methoxyphenyl)amino)-N-methylpyridazine-3-carboxamide], the “TYK2 Degradation (0.5 μM)” value was ≤20%.
Turning to `CNC(=O)c1nnc(Nc2ccc(N3CCN(C(=O)CCCC(=O)N[C@H](C(=O)N4C[C@H](O)C[C@H]4C(=O)NCc4ccc(-c5scnc5C)cc4)C(C)(C)C)CC3)cn2)cc1Nc1cccc(-c2ncn(C)n2)c1OC` [CPD-097, 6-((5-(4-(5-(((S)-1-((2S,4R)-4-Hydroxy-2-((4-(4-methylthiazol-5-yl)benzyl)carbamoyl)pyrrolidin-1-yl)-3,3-dimethyl-1-oxobutan-2-yl)amino)-5-oxopentanoyl)piperazin-1-yl)pyridin-2-yl)amino)-4-((2-methoxy-3-(1-methyl-1H-1,2,4-triazol-3-yl)phenyl)amino)-N-methylpyridazine-3-carboxamide], the “TYK2 Degradation (MOLT-4, 0.5 μM)” value was “B (B: <60% TYK2 degradation, and >20% TYK2 degradation)”; the “TYK2 Degradation (MOLT-4, 5 μM)” value is reported as “C (C: ≤20% TYK2 degradation)”.
For the compound `CNC(=O)c1nnc(NC(=O)CNC(=O)CCCCCCCOc2cc(-c3scnc3C)ccc2CNC(=O)[C@@H]2C[C@@H](O)CN2C(=O)[C@@H](NC(=O)C2(F)CC2)C(C)(C)C)cc1Nc1cccc(-c2ncn(C)n2)c1OC` [CPD-107, 6-(2-(8-(2-(((2S,4R)-1-((S)-2-(1-Fluorocyclopropane-1-carboxamido)-3,3-dimethylbutanoyl)-4-hydroxypyrrolidine-2-carboxamido)methyl)-5-(4-methylthiazol-5-yl)phenoxy)octanamido)acetamido)-4-((2-methoxy-3-(1-methyl-1H-1,2,4-triazol-3-yl)phenyl)amino)-N-methylpyridazine-3-carboxamide], the “TYK2 Degradation (MOLT-4, 0.5 μM)” value was “C (C: ≤20% TYK2 degradation)” and the “TYK2 Degradation (MOLT-4, 5 μM)” value is listed as “C (C: ≤20% TYK2 degradation)”.
On to `CNC(=O)c1nnc(NC(=O)C2CC2)cc1Nc1cccc(-c2ncn(CCNC(=O)CCOCCOCCOCCNc3ccc4c(c3)C(=O)N(C3CCC(=O)NC3=O)C4=O)n2)c1OC` (centres unmarked) [CPD-020, 6-(Cyclopropanecarboxamido)-4-((3-(1-(1-((2-(2,6-dioxopiperidin-3-yl)-1,3-dioxoisoindolin-5-yl)amino)-12-oxo-3,6,9-trioxa-13-azapentadecan-15-yl)-1H-1,2,4-triazol-3-yl)-2-methoxyphenyl)amino)-N-methylpyridazine-3-carboxamide], for which the “TYK2 Degradation (0.5 μM)” value was ≤20%.
For `CNC(=O)c1nnc(NC(=O)CNC(=O)CCCCNc2cccc3c2C(=O)N(C2CCC(=O)NC2=O)C3=O)cc1Nc1cccc(-c2ncn(C)n2)c1OC` (centres unmarked) [CPD-045, 6-(2-(5-((2-(2,6-Dioxopiperidin-3-yl)-1,3-dioxoisoindolin-4-yl)amino)pentanamido)acetamido)-4-((2-methoxy-3-(1-methyl-1H-1,2,4-triazol-3-yl)phenyl)amino)-N-methylpyridazine-3-carboxamide], the “TYK2 Degradation (0.5 μM)” value is on record as 40% and the “TYK2 Degradation (5 μM)” value is recorded as ≤20%.
For `CNC(=O)c1nnc(NC(=O)C2CC2)cc1Nc1cccc(-c2ncn(CCNC(=O)CCCNc3ccc4c(c3)C(=O)N(C3CCC(=O)NC3=O)C4=O)n2)c1OC` (centres unmarked) [CPD-015, 6-(Cyclopropanecarboxamido)-4-((3-(1-(2-(4-((2-(2,6-dioxopiperidin-3-yl)-1,3-dioxoisoindolin-5-yl)amino)butanamido)ethyl)-1H-1,2,4-triazol-3-yl)-2-methoxyphenyl)amino)-N-methylpyridazine-3-carboxamide], the “TYK2 Degradation (0.5 μM)” value is on record as ≤20%.
For `CNC(=O)c1nnc(NC(=O)CNC(=O)CCNC(=O)C[C@H](NC(=O)[C@@H]2C[C@@H](O)CN2C(=O)[C@@H](NC(=O)C2(F)CC2)C(C)(C)C)c2ccc(-c3scnc3C)cc2)cc1Nc1cccc(-c2ncn(C)n2)c1OC` [CPD-087, 6-(2-(3-((S)-3-((2S,4R)-1-((S)-2-(1-Fluorocyclopropane-1-carboxamido)-3,3-dimethylbutanoyl)-4-hydroxypyrrolidine-2-carboxamido)-3-(4-(4-methylthiazol-5-yl)phenyl)propanamido)propanamido)acetamido)-4-((2-methoxy-3-(1-methyl-1H-1,2,4-triazol-3-yl)phenyl)amino)-N-methylpyridazine-3-carboxamide], the “TYK2 Degradation (MOLT-4, 0.5 μM)” value is “C (C: ≤20% TYK2 degradation)”.
Turning to `CNC(=O)c1nnc(NC(=O)C2CC2)cc1Nc1cccc(-c2ncn(CCNC(=O)CCOCCOCCNc3cccc4c3C(=O)N(C3CCC(=O)NC3=O)C4=O)n2)c1OC` (centres unmarked) [CPD-009, 6-(Cyclopropanecarboxamido)-4-((3-(1-(2-(3-(2-(2-((2-(2,6-dioxopiperidin-3-yl)-1,3-dioxoisoindolin-4-yl)amino)ethoxy)ethoxy)propanamido)ethyl)-1H-1,2,4-triazol-3-yl)-2-methoxyphenyl)amino)-N-methylpyridazine-3-carboxamide], the “TYK2 Degradation (0.5 μM)” value was ≤20%.
For the compound `CNC(=O)c1nnc(NC(=O)CNC(=O)CCCCCCOc2cc(-c3scnc3C)ccc2CNC(=O)[C@@H]2C[C@@H](O)CN2C(=O)[C@@H](NC(=O)C2(F)CC2)C(C)(C)C)cc1Nc1cccc(-c2ncn(C)n2)c1OC` [CPD-106, 6-(2-(7-(2-(((2S,4R)-1-((S)-2-(1-Fluorocyclopropane-1-carboxamido)-3,3-dimethylbutanoyl)-4-hydroxypyrrolidine-2-carboxamido)methyl)-5-(4-methylthiazol-5-yl)phenoxy)heptanamido)acetamido)-4-((2-methoxy-3-(1-methyl-1H-1,2,4-triazol-3-yl)phenyl)amino)-N-methylpyridazine-3-carboxamide], the “TYK2 Degradation (MOLT-4, 0.5 μM)” value was “C (C: ≤20% TYK2 degradation)” and the “TYK2 Degradation (MOLT-4, 5 μM)” value is reported as “C (C: ≤20% TYK2 degradation)”.
For `CNC(=O)c1nnc(NC(=O)C2CC2)cc1Nc1cccc(-c2ncn(CCNC(=O)CCOCCNc3ccc4c(c3)C(=O)N(C3CCC(=O)NC3=O)C4=O)n2)c1OC` (centres unmarked) [CPD-018, 6-(Cyclopropanecarboxamido)-4-((3-(1-(2-(3-(2-((2-(2,6-dioxopiperidin-3-yl)-1,3-dioxoisoindolin-5-yl)amino)ethoxy)propanamido)ethyl)-1H-1,2,4-triazol-3-yl)-2-methoxyphenyl)amino)-N-methylpyridazine-3-carboxamide], the “TYK2 Degradation (0.5 μM)” value is listed as ≤20%.
For the compound `CNC(=O)c1nnc(NC(=O)C2CC2)cc1Nc1cccc(-c2ncn(CCNC(=O)CNc3cccc4c3C(=O)N(C3CCC(=O)NC3=O)C4=O)n2)c1OC` (centres unmarked) [CPD-001, 6-(Cyclopropanecarboxamido)-4-((3-(1-(2-(2-((2-(2,6-dioxopiperidin-3-yl)-1,3-dioxoisoindolin-4-yl)amino)acetamido)ethyl)-1H-1,2,4-triazol-3-yl)-2-methoxyphenyl)amino)-N-methylpyridazine-3-carboxamide], the “TYK2 Degradation (0.5 μM)” value is listed as ≤20%.
As for `CNC(=O)c1nnc(NC(=O)CNC(=O)COCC(=O)N[C@H](C(=O)N2C[C@H](O)C[C@H]2C(=O)NCc2ccc(-c3scnc3C)cc2)C(C)(C)C)cc1Nc1cccc(-c2ncn(C)n2)c1OC` [CPD-025, 6-(2-(2-(2-(((S)-1-((2S,4R)-4-Hydroxy-2-((4-(4-methylthiazol-5-yl)benzyl)carbamoyl)pyrrolidin-1-yl)-3,3-dimethyl-1-oxobutan-2-yl)amino)-2-oxoethoxy)acetamido)acetamido)-4-((2-methoxy-3-(1-methyl-1H-1,2,4-triazol-3-yl)phenyl)amino)-N-methylpyridazine-3-carboxamide], the “TYK2 Degradation (0.5 μM)” value is listed as ≤20% and the “TYK2 Degradation (5 μM)” value was ≤20%.
With `CNC(=O)c1nnc(NC(=O)CNC(=O)COCCOCCOCCOCCOCC(=O)N[C@H](C(=O)N2C[C@H](O)C[C@H]2C(=O)NCc2ccc(-c3scnc3C)cc2)C(C)(C)C)cc1Nc1cccc(-c2ncn(C)n2)c1OC` [CPD-032, N^1—((S)-1-((2S,4R)-4-Hydroxy-2-((4-(4-methylthiazol-5-yl)benzyl)carbamoyl)pyrrolidin-1-yl)-3,3-dimethyl-1-oxobutan-2-yl)-N^17-(2-((5-((2-methoxy-3-(1-methyl-1H-1,2,4-triazol-3-yl)phenyl)amino)-6-(methylcarbamoyl)pyridazin-3-yl)amino)-2-oxoethyl)-3,6,9,12,15-pentaoxaheptadecanediamide], the “TYK2 Degradation (0.5 μM)” value was ≤20% and the “TYK2 Degradation (5 μM)” value is listed as ≤20%.
